Source: patent US12378231B2, “Small molecules as monoacylglycerol lipase (MAGL) inhibitors, compositions and use thereof” (APOGEE PHARMACEUTICALS, INC., priority 2023, dated 2025)
pIC50: −log10 of the molar value. Where two headings read alike, the source gives them in different places.

Key:
human recombinant FAAH = human recombinant FAAH (Homo sapiens (Human), UniProt O00519); assay: In vitro inhibition of human recombinant FAAH activity (Cayman FAAH inhibitor screening kit, AMC arachidonoyl amide hydrolysis); format: biochemical
From the text: In brief, FAAH hydrolyzes AMC arachidonoyl amide resulting in the release of the fluorescent product, while the inhibitor will inhibit the FAAH activity and thus reduce the fluorescent signal.

human recombinant MAGL = human recombinant MAGL (Homo sapiens (Human), UniProt Q99685); assay: In vitro inhibition of human recombinant MAGL activity (Cayman inhibitor screening kit, 4-nitrophenylacetate hydrolysis); format: biochemical
From the text: The inhibitory effect of the synthetic chemicals on activity of human recombinant MAGL was studied using commercial inhibitor screening kit (Cayman Chemical). […] The absorbance of the yellow product can be analyzed using the plate reader. […]

[1] = human recombinant MAGL, read-out: Inhibition on MAGL activity (IC50)

Chain of human recombinant MAGL (Q99685 whole entry): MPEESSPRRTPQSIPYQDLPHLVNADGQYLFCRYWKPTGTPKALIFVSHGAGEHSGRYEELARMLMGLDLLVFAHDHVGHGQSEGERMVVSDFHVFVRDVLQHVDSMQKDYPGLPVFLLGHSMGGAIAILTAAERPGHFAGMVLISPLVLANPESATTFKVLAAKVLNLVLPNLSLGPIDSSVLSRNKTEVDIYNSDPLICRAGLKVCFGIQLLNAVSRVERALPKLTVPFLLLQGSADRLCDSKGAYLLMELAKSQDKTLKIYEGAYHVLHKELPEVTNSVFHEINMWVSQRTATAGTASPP
Chain of human recombinant FAAH (O00519 whole entry): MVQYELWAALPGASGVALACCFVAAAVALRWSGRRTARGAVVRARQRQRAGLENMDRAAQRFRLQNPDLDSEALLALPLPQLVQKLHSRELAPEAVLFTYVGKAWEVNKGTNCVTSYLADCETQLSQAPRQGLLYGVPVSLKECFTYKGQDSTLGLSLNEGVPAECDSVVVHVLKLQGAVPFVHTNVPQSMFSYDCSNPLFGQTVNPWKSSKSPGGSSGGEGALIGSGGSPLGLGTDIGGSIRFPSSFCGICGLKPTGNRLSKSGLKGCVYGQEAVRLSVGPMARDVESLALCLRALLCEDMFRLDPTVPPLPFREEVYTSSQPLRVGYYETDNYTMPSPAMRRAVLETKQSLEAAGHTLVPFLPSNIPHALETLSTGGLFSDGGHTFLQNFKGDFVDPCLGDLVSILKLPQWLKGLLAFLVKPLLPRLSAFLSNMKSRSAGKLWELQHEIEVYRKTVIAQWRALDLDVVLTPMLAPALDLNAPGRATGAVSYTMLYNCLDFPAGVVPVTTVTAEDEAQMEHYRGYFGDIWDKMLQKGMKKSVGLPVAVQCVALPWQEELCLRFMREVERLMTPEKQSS

| Compound | pIC50 (human recombinant FAAH) | pIC50 (human recombinant MAGL; [1]) | pIC50 (human recombinant MAGL) |
| --- | --- | --- | --- |
| 1-(4-((2,3-dihydrobenzo[b][1,4]dioxin-6-yl)(4-methoxyphenyl)methyl)piperazine-1-carbonyl)-1H-benzo[d][1,2,3]triazole-6-carbonitrile and 1-(4-((2,3-dihydrobenzo[b][1,4]dioxin-6-yl)(4-methoxyphenyl)methyl)piperazine-1-carbonyl)-1H-benzo[d][1,2,3]triazole-5-carbonitrile [Example 106] | ~5.00 | 8.00 to 9.00 | – |
| 1-(4-((4-methoxyphenyl)(pyridin-3-yl)methyl)piperazine-1-carbonyl)-1H-benzo[d][1,2,3]triazole-6-carbonitrile and 1-(4-((4-methoxyphenyl)(pyridin-3-yl)methyl)piperazine-1-carbonyl)-1H-benzo[d][1,2,3]triazole-5-carbonitrile [Example 103] | 5.00 to 6.00 | 8.00 to 9.00 | – |
| 1-(4-(bis(2,3-dihydrobenzo[b][1,4]dioxin-6-yl)methyl)piperazine-1-carbonyl)-1H-benzo[d][1,2,3]triazole-6-carbonitrile and 1-(4-(bis(2,3-dihydrobenzo[b][1,4]dioxin-6-yl)methyl)piperazine-1-carbonyl)-1H-benzo[d][1,2,3]triazole-5-carbonitrile [Example 91] | < 4.30 | 8.00 to 9.00 | – |
| 1-(4-(di(pyridin-3-yl)methyl)piperazine-1-carbonyl)-1H-benzo[d][1,2,3]triazole-6-carbonitrile and 1-(4-(di(pyridin-3-yl)methyl)piperazine-1-carbonyl)-1H-benzo[d][1,2,3]triazole-5-carbonitrile [Example 105] | < 5.00 | 6.00 to 8.00 | – |
| O=C(OC(C(F)(F)F)C(F)(F)F)N1CCN(Cc2ccc(C(F)(F)F)cc2N2CCCC2)CC1 [ABX-1431] | < 4.30 | – | – |
| O=C(N1CCN(C(c2ccc3c(c2)COCO3)c2ccc3c(c2)COCO3)CC1)n1cccn1 [Example 1, (4-(bis(4H-benzo[d][1,3]dioxin-6-yl)methyl)piperazin-1-yl)(1H-pyrazol-1-yl)methanone] | < 4.30 | < 7.00 | – |
| O=C(N1CCN(C(c2ccc3c(c2)COCO3)c2ccc3c(c2)COCO3)CC1)n1cnc(Cl)n1 [Example 2, (4-(bis(4H-benzo[d][1,3]dioxin-6-yl)methyl)piperazin-1-yl)(3-chloro-1H-1,2,4-triazol-1-yl)methanone] | < 5.00 | 8.00 to 9.00 | – |
| O=C(OC(C(F)(F)F)C(F)(F)F)N1CCN(C(c2ccc3c(c2)COCO3)c2ccc3c(c2)COCO3)CC1 [Example 3, 1,1,1,3,3,3-hexafluoropropan-2-yl 4-(bis(4H-benzo[d][1,3]dioxin-6-yl)methyl)piperazine-1-carboxylate] | < 4.30 | 7.70 to 9.00 | – |
| O=C(Oc1ccc([N+](=O)[O-])cc1)N1CCN(C(c2ccc3c(c2)COCO3)c2ccc3c(c2)COCO3)CC1 [Example 4, 4-nitrophenyl 4-(bis(4H-benzo[d][1,3]dioxin-6-yl)methyl)piperazine-1-carboxylate] | < 5.00 | – | 6.00 to 7.00 |
| O=C(Oc1ccc(F)cc1)N1CCN(C(c2ccc3c(c2)COCO3)c2ccc3c(c2)COCO3)CC1 [Example 5, 4-fluorophenyl 4-(bis(4H-benzo[d][1,3]dioxin-6-yl)methyl)piperazine-1-carboxylate] | < 4.30 | < 7.00 | – |
| O=C(ON1C(=O)CCC1=O)N1CCN(C(c2ccc3c(c2)COCO3)c2ccc3c(c2)COCO3)CC1 [Example 6, 2,5-dioxopyrrolidin-1-yl 4-(bis(4H-benzo[d][1,3]dioxin-6-yl)methyl)piperazine-1-carboxylate] | < 4.30 | < 7.00 | – |
| O=C(Oc1ccc(Oc2ccccc2)cc1)N1CCN(C(c2ccc3c(c2)COCO3)c2ccc3c(c2)COCO3)CC1 [Example 7, 4-phenoxyphenyl 4-(bis(4H-benzo[d][1,3]dioxin-6-yl)methyl)piperazine-1-carboxylate] | < 5.00 | < 7.00 | – |
| O=C(N1CCN(C(c2ccc3c(c2)COCO3)c2ccc3c(c2)COCO3)CC1)n1nnc2ccccc21 [Example 8, (1H-benzo[d][1,2,3]triazol-1-yl)(4-(bis(4H-benzo[d][1,3]dioxin-6-yl)methyl)piperazin-1-yl)methanone] | < 4.70 | 7.70 to 9.00 | – |
| O=C(N1CCN(C(c2ccc3c(c2)COCO3)c2ccc3c(c2)COCO3)CC1)n1ccnc1 [Example 9, (4-(bis(4H-benzo[d][1,3]dioxin-6-yl)methyl)piperazin-1-yl)(1H-imidazol-1-yl)methanone] | < 5.00 | < 7.00 | – |
| O=C(N1CCN(C(c2ccc3c(c2)COCO3)c2ccc3c(c2)COCO3)CC1)n1cncn1 [Example 10, (4-(bis(4H-benzo[d][1,3]dioxin-6-yl)methyl)piperazin-1-yl)(1H-1,2,4-triazol-1-yl)methanone] | 5.00 to 6.00 | 7.00 to 8.00 | – |
| CCN(C(=O)N1CCN(C(c2ccc3c(c2)COCO3)c2ccc3c(c2)COCO3)CC1)C(C)C [Example 11, 4-(bis(4H-benzo[d][1,3]dioxin-6-yl)methyl)-N-ethyl-N-isopropylpiperazine-1-carboxamide] | < 4.30 | < 7.00 | – |

| Compound | pIC50 (human recombinant FAAH) | pIC50 (human recombinant MAGL; [1]) | pIC50 (human recombinant MAGL) |
| --- | --- | --- | --- |
| O=C(Oc1ccc2c(c1)CCC2)N1CCN(C(c2ccc3c(c2)COCO3)c2ccc3c(c2)COCO3)CC1 [Example 12, 2,3-dihydro-1H-inden-5-yl 4-(bis(4H-benzo[d][1,3]dioxin-6-yl)methyl)piperazine-1-carboxylate] | < 5.00 | < 7.00 | – |
| O=C(Oc1ccc([N+](=O)[O-])cc1[N+](=O)[O-])N1CCN(C(c2ccc3c(c2)COCO3)c2ccc3c(c2)COCO3)CC1 [Example 13, 2,4-dinitrophenyl 4-(bis(4H-benzo[d][1,3]dioxin-6-yl)methyl)piperazine-1-carboxylate] | < 5.00 | < 7.00 | – |
| COc1ccc(OC(=O)N2CCN(C(c3ccc4c(c3)COCO4)c3ccc4c(c3)COCO4)CC2)cc1 [Example 14, 4-methoxyphenyl 4-(bis(4H-benzo[d][1,3]dioxin-6-yl)methyl)piperazine-1-carboxylate] | < 4.30 | < 7.00 | – |
| CCC(CC)OC(=O)N1CCN(C(c2ccc3c(c2)COCO3)c2ccc3c(c2)COCO3)CC1 [Example 15, pentan-3-yl 4-(bis(4H-benzo[d][1,3]dioxin-6-yl)methyl)piperazine-1-carboxylate] | < 4.30 | < 7.00 | – |
| O=C(OC1CCCCC1)N1CCN(C(c2ccc3c(c2)COCO3)c2ccc3c(c2)COCO3)CC1 [Example 16, cyclohexyl 4-(bis(4H-benzo[d][1,3]dioxin-6-yl)methyl)piperazine-1-carboxylate] | < 4.30 | < 7.00 | – |
| O=C(N1CCCCC1)N1CCN(C(c2ccc3c(c2)COCO3)c2ccc3c(c2)COCO3)CC1 [Example 17, (4-(bis(4H-benzo[d][1,3]dioxin-6-yl)methyl)piperazin-1-yl)(piperidin-1-yl)methanone] | < 4.30 | < 7.00 | – |
| CCN(CC)C(=O)N1CCN(C(c2ccc3c(c2)COCO3)c2ccc3c(c2)COCO3)CC1 [Example 18, 4-(bis(4H-benzo[d][1,3]dioxin-6-yl)methyl)-N,N-diethylpiperazine-1-carboxamide] | < 4.30 | < 7.00 | – |
| O=C(Oc1ccc([N+](=O)[O-])cc1F)N1CCN(C(c2ccc3c(c2)COCO3)c2ccc3c(c2)COCO3)CC1 [Example 19, 2-fluoro-4-nitrophenyl 4-(bis(4H-benzo[d][1,3]dioxin-6-yl)methyl)piperazine-1-carboxylate] | < 4.30 | < 7.00 | – |
| O=C(Oc1ccccn1)N1CCN(C(c2ccc3c(c2)COCO3)c2ccc3c(c2)COCO3)CC1 [Example 20, pyridin-2-yl 4-(bis(4H-benzo[d][1,3]dioxin-6-yl)methyl)piperazine-1-carboxylate] | < 4.30 | < 7.00 | – |
| S=C(N1CCN(C(c2ccc3c(c2)COCO3)c2ccc3c(c2)COCO3)CC1)n1cncn1 [Example 21, (4-(bis(4H-benzo[d][1,3]dioxin-6-yl)methyl)piperazin-1-yl)(1H-1,2,4-triazol-1-yl)methanethione] | < 4.30 | < 7.00 | – |
| O=C(On1nnc2ccc(C(F)(F)F)cc21)N1CCN(C(c2ccc3c(c2)COCO3)c2ccc3c(c2)COCO3)CC1 [Example 22, 6-(trifluoromethyl)-1H-benzo[d][1,2,3]triazol-1-yl 4-(bis(4H-benzo[d][1,3]dioxin-6-yl)methyl)piperazine-1-carboxylate] | < 4.30 | < 7.00 | – |
| O=C(On1nnc2cccnc21)N1CCN(C(c2ccc3c(c2)COCO3)c2ccc3c(c2)COCO3)CC1 [Example 23, 3H-[1,2,3]triazolo[4,5-b]pyridin-3-yl 4-(bis(4H-benzo[d][1,3]dioxin-6-yl)methyl)piperazine-1-carboxylate] | < 5.00 | < 7.00 | – |
| N#Cc1cnn(C(=O)N2CCN(C(c3ccc4c(c3)COCO4)c3ccc4c(c3)COCO4)CC2)c1 [Example 24, 1-(4-(bis(4H-benzo[d][1,3]dioxin-6-yl)methyl)piperazine-1-carbonyl)-1H-pyrazole-4-carbonitrile] | 5.00 to 6.00 | 8.00 to 9.00 | – |
| O=C(N1CCN(C(c2ccc3c(c2)COCO3)c2ccc3c(c2)COCO3)CC1)n1cc(-c2ccccc2)nn1 [Example 25, (4-(bis(4H-benzo[d][1,3]dioxin-6-yl)methyl)piperazin-1-yl)(4-phenyl-1H-1,2,3-triazol-1-yl)methanone] | < 5.00 | 7.00 to 8.00 | – |
| O=C(N1CCN(C(c2ccc3c(c2)COCO3)c2ccc3c(c2)COCO3)CC1)n1ncc(-c2ccccc2)n1 [Example 26, (4-(bis(4H-benzo[d][1,3]dioxin-6-yl)methyl)piperazin-1-yl)(4-phenyl-2H-1,2,3-triazol-2-yl)methanone] | 5.00 to 6.00 | 7.00 to 8.00 | – |
| NC(=O)c1cccc(-c2cccc(OC(=O)NC3CCCCC3)c2)c1 [URB597, reference compound] | – | < 4.30 | – |
